This is an account of results in patent publication US9211283B2, “Nanoparticle carrier systems based on human serum albumin for photodynamic therapy” (Biolitec Pharma Marketing Ltd, priority 2009, dated 2015).

Data set [1] is described as follows: Singlet oxygen generation and triplet parameters. In kind it is physicochemical. The following applies: in ethanol.
For data set [2], the system named is Jurkat cells. As to the kind of experiment: Dark toxicity (trypan blue test, apoptotic blebbing). The class given is cell-based. The following applies: 3 μM mTHPC, 1 h, 3 h, 5 h and 24 h incubation in darkness, FIG. 6A. Here is the method: Intracellular uptake and phototoxicity of the present nanoparticles formulation was studied using Jurkat-cell suspensions cultured in RPMI1640 medium. All cells were incubated in 3 μM mTHPC and mTHPC loaded into different concentration of HSA based nanoparticles for set period of time (1 h, 3 h, 5 h, 24 h). The HSA-based nanoparticles of varying HSA concentration was used to determine the intracellular uptake and phototoxicity effect of the cells suspension.
Trypan blue test was used to assess the necrotic cells, apoptotic cells were detected by their change of cell shape (apoptotic blebbing).
In each case Jurkat cells were incubated in five samples. After 1 h, 3 h, 5 h. and 24 h incubation in darkness an aliquot of each sample was investigated. Trypan blue test was used to assess the necrotic cells, apoptotic cells were detected by their change of cell shape (apoptotic blebbing). Little or no effect was found. In other words dark toxicity was not observed for the mTHPC concentrations used.

Data set [3] is described as follows: Fluorescence lifetime. In kind it is physicochemical.

With `O=C([O-])c1c(Cl)c(Cl)c(Cl)c(Cl)c1-c1c2cc(I)c(=O)c(I)c-2oc2c(I)c([O-])c(I)cc12.[Na+].[Na+]` [Rose Bengal], in data set [1], the “ΦΔ (±0.03) (singlet oxygen quantum yield)” value was 0.75, the “τT (lifetime of triplet state)” value amounted to 3.3 ± 0.1 μs and the “τΔ (lifetime of singlet oxygen)” value was determined as 64.1 ± 0.2 μs.

As for `Oc1cccc(-c2c3nc(c(-c4cccc(O)c4)c4ccc([nH]4)c(-c4cccc(O)c4)c4nc(c(-c5cccc(O)c5)c5ccc2[nH]5)CC4)C=C3)c1` [mTHPC, 5,10,15,20-tetrakis(3-hydroxyphenyl)-chlorin], the Dark toxicity entry in data set [2] was “not observed”.

Regarding `Oc1cccc(-c2c3nc(c(-c4cccc(O)c4)c4ccc([nH]4)c(-c4cccc(O)c4)c4nc(c(-c5cccc(O)c5)c5ccc2[nH]5)C=C4)C=C3)c1` [mTHPP, 5,10,15,20-tetrakis(m-hydroxyphenyl)-porphyrin], in data set [3] (fluorescence lifetime, in EtOH (monomers)), the “τ3 [ns] ± 0.2” value is on record as 9.6 ns. The “Amplitude [%] of τ3” value in data set [3] (in EtOH) is 100%.
